Results reported in ChEMBL document CHEMBL5291721, “A preclinical secondary pharmacology resource illuminates target-adverse drug reaction associations of marketed drugs” (Nat Commun, 2023).

How the values were obtained:
[1] = molecular target: T1, Peroxisome proliferator-activated receptor gamma (Homo sapiens, UniProt P37231); type: functional
T1 sequence (P37231 whole entry): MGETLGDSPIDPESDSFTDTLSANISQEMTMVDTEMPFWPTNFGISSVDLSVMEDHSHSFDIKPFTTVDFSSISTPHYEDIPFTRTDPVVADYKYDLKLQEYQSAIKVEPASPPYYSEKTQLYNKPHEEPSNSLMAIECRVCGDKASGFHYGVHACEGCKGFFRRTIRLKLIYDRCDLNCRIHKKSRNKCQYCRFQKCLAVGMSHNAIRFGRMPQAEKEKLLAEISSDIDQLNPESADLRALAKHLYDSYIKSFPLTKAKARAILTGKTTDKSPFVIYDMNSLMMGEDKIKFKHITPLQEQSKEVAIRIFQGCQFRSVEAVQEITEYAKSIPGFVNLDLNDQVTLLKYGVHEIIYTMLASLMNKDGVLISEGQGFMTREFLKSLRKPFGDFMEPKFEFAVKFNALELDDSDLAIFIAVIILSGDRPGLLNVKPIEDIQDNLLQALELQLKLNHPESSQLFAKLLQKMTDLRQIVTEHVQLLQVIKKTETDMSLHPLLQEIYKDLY

[2] = molecular target: Sodium channel protein type 5 subunit alpha (Homo sapiens, UniProt Q14524); type: functional, cell-based
[3] = molecular target: T2, Muscarinic acetylcholine receptor M2 (Homo sapiens, UniProt P08172); type: functional, cell-based
T2 sequence (P08172 whole entry): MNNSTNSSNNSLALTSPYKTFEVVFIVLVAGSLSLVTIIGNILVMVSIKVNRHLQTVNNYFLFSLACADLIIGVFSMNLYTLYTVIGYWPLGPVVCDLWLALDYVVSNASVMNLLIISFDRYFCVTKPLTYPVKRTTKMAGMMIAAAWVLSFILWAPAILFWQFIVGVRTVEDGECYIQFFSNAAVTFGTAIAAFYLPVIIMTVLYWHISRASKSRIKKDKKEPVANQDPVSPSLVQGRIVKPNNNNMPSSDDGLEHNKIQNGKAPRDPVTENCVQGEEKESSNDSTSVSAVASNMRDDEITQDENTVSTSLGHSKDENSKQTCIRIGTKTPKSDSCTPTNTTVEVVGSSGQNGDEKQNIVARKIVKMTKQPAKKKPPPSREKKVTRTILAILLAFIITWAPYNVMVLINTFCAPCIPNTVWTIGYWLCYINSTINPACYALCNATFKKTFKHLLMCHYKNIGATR

[4] = molecular target: 5-hydroxytryptamine receptor 2A (Homo sapiens, UniProt P28223); type: functional, cell-based
[5] = molecular target: Vascular endothelial growth factor receptor 2 (Homo sapiens, UniProt P35968); type: functional
Cannabinoid receptor 1 = Cannabinoid receptor 1 (Homo sapiens, UniProt P21554); type: functional, cell-based
[6] = molecular target: T3, Alpha-1A adrenergic receptor (Homo sapiens, UniProt P35348); type: functional, cell-based
T3 sequence (P35348 whole entry): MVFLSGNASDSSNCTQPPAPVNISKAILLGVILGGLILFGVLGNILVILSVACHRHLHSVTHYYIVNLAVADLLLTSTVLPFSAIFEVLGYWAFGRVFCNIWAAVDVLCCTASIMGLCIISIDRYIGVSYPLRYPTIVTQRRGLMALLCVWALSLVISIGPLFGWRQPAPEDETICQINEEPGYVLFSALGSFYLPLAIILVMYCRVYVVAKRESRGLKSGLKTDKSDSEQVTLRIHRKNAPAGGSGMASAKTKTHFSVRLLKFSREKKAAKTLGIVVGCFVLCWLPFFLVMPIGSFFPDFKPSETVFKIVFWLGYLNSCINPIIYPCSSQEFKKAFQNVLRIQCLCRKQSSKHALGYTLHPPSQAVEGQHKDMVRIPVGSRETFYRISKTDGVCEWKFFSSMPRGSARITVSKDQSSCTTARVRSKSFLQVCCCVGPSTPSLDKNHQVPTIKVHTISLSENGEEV

[7] = molecular target: 3',5'-cyclic-AMP phosphodiesterase 4A (Homo sapiens, UniProt P27815); type: functional
Estrogen receptor = molecular target: T4, Estrogen receptor (Homo sapiens, UniProt P03372)
T4 sequence (P03372 whole entry): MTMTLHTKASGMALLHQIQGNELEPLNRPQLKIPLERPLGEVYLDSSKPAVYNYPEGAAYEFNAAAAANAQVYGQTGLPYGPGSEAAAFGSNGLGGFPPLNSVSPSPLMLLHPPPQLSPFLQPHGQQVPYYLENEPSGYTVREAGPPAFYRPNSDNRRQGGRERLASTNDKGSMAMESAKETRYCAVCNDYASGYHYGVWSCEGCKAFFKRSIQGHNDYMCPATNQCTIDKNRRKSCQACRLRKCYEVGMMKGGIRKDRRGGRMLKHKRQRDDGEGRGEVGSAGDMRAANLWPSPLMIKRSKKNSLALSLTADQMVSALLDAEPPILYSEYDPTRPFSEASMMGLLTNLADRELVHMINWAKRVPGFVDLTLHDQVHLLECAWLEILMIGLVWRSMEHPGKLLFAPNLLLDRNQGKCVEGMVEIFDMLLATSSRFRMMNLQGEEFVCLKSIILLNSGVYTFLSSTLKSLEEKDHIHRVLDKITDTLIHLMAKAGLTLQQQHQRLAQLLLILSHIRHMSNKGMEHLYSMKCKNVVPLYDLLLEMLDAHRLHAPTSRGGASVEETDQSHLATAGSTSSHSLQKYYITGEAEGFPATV

[8] = molecular target: Beta-2 adrenergic receptor (Homo sapiens, UniProt P07550)
Thromboxane A2 receptor = molecular target: T5, Thromboxane A2 receptor (Homo sapiens, UniProt P21731)
T5 sequence (P21731 whole entry): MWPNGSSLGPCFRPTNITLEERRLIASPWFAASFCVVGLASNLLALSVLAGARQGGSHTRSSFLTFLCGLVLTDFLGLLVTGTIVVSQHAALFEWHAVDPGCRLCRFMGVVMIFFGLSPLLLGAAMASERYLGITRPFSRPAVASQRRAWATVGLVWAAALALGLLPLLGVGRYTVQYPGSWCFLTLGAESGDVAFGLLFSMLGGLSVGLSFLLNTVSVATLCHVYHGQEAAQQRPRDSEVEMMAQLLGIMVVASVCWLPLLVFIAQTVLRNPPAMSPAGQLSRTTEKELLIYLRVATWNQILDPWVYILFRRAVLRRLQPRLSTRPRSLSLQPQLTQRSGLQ

[9] = molecular target: T3, Alpha-1A adrenergic receptor
[10] = molecular target: Gamma-aminobutyric acid receptor subunit alpha-1/alpha-2/beta-2/gamma-2 (Homo sapiens, UniProt P14867+P18507+P47869+P47870); type: protein-complex assay
Note: assay procedure not described here.

Sequence of Gamma-aminobutyric acid receptor subunit alpha-1/alpha-2/beta-2/gamma-2 (P14867 whole entry): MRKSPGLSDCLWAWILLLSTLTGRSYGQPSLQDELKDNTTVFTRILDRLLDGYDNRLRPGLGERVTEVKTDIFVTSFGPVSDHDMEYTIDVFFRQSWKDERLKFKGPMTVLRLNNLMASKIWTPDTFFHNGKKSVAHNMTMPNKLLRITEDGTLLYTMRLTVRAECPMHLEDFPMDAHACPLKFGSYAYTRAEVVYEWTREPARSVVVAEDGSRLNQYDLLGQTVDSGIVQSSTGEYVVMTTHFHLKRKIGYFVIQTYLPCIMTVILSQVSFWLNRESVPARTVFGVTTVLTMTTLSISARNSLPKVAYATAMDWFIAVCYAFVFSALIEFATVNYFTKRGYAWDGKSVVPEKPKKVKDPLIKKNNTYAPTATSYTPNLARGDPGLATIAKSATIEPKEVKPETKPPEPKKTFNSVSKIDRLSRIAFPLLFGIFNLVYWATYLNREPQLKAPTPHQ
Sequence of Gamma-aminobutyric acid receptor subunit alpha-1/alpha-2/beta-2/gamma-2 (P47870 whole entry): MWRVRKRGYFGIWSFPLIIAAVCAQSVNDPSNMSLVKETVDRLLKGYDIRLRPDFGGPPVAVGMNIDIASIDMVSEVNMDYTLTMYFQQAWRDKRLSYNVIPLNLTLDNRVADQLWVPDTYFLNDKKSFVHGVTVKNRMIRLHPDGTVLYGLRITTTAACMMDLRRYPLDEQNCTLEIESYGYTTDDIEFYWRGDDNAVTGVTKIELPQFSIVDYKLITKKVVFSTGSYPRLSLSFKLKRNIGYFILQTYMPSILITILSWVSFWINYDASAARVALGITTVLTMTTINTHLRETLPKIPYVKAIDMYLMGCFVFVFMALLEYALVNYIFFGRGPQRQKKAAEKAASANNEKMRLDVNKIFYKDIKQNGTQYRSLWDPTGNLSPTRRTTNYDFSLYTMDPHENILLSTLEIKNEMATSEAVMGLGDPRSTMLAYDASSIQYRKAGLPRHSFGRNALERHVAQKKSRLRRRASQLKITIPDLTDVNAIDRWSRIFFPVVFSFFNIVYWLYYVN
Sequence of Gamma-aminobutyric acid receptor subunit alpha-1/alpha-2/beta-2/gamma-2 (P18507 whole entry): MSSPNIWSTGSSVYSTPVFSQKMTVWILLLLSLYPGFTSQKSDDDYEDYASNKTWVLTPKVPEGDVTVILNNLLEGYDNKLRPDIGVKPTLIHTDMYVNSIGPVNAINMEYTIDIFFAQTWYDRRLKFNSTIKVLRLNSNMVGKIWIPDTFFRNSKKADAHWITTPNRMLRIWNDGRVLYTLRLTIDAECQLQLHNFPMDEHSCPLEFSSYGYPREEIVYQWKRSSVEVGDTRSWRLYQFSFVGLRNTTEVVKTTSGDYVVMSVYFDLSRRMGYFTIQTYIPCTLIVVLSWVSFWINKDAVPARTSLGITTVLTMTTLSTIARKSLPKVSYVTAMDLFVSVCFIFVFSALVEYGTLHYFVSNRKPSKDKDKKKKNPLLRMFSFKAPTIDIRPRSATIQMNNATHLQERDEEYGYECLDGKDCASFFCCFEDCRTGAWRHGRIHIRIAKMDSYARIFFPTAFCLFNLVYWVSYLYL
Sequence of Gamma-aminobutyric acid receptor subunit alpha-1/alpha-2/beta-2/gamma-2 (P47869 whole entry): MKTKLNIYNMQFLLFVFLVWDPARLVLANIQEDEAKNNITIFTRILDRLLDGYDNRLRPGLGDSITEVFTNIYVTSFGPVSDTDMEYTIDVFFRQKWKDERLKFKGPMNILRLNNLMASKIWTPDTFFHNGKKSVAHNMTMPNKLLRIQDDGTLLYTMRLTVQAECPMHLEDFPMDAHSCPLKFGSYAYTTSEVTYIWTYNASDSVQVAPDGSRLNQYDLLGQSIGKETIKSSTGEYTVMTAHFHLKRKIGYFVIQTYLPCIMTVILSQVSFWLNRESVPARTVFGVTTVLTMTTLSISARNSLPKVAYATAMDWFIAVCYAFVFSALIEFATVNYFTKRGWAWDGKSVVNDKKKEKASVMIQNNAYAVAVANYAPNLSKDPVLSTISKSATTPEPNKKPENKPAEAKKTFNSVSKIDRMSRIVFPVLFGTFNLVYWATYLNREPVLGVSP
Sequence of Sodium channel protein type 5 subunit alpha (Q14524 whole entry): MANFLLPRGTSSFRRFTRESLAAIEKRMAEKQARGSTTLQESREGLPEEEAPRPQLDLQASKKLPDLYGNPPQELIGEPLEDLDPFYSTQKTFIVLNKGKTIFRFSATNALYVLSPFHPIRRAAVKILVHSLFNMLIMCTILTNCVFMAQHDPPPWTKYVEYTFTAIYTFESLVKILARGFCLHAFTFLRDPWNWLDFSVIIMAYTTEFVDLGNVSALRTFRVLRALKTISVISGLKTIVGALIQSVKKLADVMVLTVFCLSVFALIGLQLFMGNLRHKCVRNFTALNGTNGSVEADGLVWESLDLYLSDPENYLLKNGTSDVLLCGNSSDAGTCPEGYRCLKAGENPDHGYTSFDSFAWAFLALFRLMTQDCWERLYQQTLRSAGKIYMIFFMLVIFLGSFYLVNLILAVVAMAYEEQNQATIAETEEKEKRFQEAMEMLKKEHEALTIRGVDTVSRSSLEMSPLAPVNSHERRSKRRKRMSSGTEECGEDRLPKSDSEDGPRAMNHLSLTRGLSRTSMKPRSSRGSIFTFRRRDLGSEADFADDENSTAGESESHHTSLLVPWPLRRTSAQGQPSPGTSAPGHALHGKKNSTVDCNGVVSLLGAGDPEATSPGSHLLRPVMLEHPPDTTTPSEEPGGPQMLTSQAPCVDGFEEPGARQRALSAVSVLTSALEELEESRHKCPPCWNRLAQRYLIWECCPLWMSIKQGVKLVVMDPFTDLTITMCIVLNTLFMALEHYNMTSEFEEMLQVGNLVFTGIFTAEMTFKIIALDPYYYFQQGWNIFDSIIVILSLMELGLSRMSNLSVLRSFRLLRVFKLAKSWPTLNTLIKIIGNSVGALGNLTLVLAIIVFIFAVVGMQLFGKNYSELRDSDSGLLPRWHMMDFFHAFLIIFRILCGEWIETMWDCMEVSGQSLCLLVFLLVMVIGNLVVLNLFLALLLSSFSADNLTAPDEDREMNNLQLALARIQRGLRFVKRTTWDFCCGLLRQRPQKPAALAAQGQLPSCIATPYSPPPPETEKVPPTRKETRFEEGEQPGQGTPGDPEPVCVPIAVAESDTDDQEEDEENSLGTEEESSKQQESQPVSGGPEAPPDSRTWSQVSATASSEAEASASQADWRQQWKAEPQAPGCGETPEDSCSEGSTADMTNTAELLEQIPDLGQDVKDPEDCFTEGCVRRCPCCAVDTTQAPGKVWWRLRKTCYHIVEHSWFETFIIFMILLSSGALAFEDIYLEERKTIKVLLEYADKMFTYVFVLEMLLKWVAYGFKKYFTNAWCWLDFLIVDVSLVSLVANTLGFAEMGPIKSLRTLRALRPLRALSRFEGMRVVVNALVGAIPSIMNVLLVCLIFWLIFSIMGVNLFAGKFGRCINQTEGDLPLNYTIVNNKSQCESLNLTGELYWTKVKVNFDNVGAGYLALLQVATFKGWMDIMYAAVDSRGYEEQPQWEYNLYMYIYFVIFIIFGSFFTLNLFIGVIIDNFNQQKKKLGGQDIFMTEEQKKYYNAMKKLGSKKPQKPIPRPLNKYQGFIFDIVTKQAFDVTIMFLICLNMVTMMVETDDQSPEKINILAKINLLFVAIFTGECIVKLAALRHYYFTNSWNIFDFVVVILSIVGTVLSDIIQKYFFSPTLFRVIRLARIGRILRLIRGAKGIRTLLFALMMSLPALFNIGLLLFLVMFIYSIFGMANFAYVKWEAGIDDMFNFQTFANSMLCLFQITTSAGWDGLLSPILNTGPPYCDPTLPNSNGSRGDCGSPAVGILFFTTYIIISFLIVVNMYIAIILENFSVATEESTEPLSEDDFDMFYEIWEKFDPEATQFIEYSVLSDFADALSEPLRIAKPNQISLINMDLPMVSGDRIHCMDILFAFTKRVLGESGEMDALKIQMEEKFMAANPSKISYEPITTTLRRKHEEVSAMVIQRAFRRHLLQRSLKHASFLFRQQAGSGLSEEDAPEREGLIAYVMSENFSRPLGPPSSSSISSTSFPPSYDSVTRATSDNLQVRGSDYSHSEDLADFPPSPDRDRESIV
Sequence of 3',5'-cyclic-AMP phosphodiesterase 4A (P27815 whole entry): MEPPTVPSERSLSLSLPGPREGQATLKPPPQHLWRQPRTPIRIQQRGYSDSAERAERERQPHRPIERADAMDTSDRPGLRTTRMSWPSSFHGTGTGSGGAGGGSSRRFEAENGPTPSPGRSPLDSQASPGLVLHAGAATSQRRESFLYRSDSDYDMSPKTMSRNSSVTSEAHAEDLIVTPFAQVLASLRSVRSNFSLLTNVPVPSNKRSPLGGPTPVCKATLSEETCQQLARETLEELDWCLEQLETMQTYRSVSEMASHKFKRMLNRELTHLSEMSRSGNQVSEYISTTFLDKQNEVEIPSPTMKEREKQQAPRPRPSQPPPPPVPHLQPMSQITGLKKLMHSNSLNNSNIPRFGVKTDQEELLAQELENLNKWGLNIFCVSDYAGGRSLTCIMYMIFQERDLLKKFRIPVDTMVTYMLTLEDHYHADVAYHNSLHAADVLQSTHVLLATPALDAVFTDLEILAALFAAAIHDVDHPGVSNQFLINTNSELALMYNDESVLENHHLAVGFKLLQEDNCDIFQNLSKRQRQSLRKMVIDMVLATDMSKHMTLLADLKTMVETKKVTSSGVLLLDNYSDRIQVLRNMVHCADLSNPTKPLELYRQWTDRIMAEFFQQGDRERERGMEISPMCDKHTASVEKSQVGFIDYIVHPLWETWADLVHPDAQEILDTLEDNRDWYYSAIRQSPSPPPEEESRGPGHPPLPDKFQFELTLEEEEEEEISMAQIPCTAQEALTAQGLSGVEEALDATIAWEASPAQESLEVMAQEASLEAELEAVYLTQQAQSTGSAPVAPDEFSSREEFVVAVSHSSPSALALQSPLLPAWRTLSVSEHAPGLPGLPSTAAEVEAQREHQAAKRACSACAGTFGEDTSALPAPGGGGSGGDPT

Row | Compound | AC50 [1] | AC50 [2] | AC50 [3] | AC50 [4] | AC50 [5] | AC50 (Cannabinoid receptor 1) | AC50 [6] | AC50 [7] | AC50 (Estrogen receptor) | AC50 [8] | AC50 (Thromboxane A2 receptor) | AC50 [9] | AC50 [10]
1 | CN1CC2c3ccccc3Oc3ccc(Cl)cc3C2C1 (configuration not stated) [ASENAPINE] | > 30 µM | 2 µM | 19 µM | 0.0002 µM | > 30 µM | > 30 µM |  |  |  |  |  |  | 
2 | COc1cc2c(cc1OC)C1CC(=O)C(CC(C)C)CN1CC2 (configuration not stated) [TETRABENAZINE] | > 30 µM |  | > 30 µM | > 30 µM | > 30 µM | > 30 µM |  |  |  |  |  |  | 
3 | C[C@H](CCC(=O)O)[C@H]1CC[C@H]2[C@@H]3[C@H](O)C[C@@H]4C[C@H](O)CC[C@]4(C)[C@H]3CC[C@]12C [CHENODIOL] | > 30 µM | > 50 µM | > 30 µM | > 30 µM | > 3 µM | > 30 µM |  |  |  |  |  |  | 
4 | c1cnc2cc3c(cc2n1)[C@@H]1CNC[C@H]3C1 [VARENICLINE] | > 30 µM |  | > 30 µM | > 30 µM | > 30 µM | > 30 µM |  |  |  |  |  |  | 
5 | CC(=O)Oc1ccccc1C(=O)O [ASPIRIN] |  | > 30 µM | > 30 µM |  | > 30 µM | > 30 µM | > 30 µM | > 30 µM | > 30 µM | > 10 µM | > 30 µM | > 10 µM | > 30 µM
6 | C[C@H](Nc1ncnc2[nH]cnc12)c1cc2cccc(Cl)c2c(=O)n1-c1ccccc1 [DUVELISIB] | > 30 µM | > 50 µM | > 30 µM | 18 µM | > 30 µM | > 30 µM |  | > 30 µM | > 30 µM |  |  |  | 
7 | Nc1c2c(nc3ccccc13)CCCC2O (configuration not stated) [VELNACRINE] | > 30 µM |  | > 30 µM | > 30 µM | > 30 µM | > 30 µM |  |  |  |  |  |  | 
8 | CN(C)CCC=C1c2ccccc2CCc2ccccc21 [AMITRIPTYLINE] |  | 1.81 µM |  |  | > 30 µM | > 30 µM | > 30 µM | > 30 µM | > 30 µM | 21.1 µM | > 30 µM | 0.0299 µM | > 30 µM
9 | CCC[C@@]1(CCc2ccccc2)CC(O)=C([C@H](CC)c2cccc(NS(=O)(=O)c3ccc(C(F)(F)F)cn3)c2)C(=O)O1 | 6.9 µM | > 50 µM | > 30 µM | 11 µM | > 30 µM | > 30 µM |  |  |  |  |  |  | 
10 | CO[C@@H]1[C@@H](OC(N)=O)[C@@H](O)[C@H](Oc2ccc3c(O)c(NC(=O)c4ccc(O)c(CC=C(C)C)c4)c(=O)oc3c2C)OC1(C)C [NOVOBIOCIN] | > 30 µM | > 50 µM | > 30 µM | > 30 µM | 25 µM | > 30 µM |  |  |  |  |  |  | 
11 | C[C@@H](O)[C@H]1C(=O)N2C(C(=O)O)=C(SCCN=CN)C[C@H]12 [IMIPENEM ANHYDROUS] | > 300 µM |  | > 300 µM | > 300 µM | > 300 µM | > 300 µM |  |  |  |  |  |  | 
12 | NCC1(CC(=O)O)CCCCC1 [GABAPENTIN] | > 30 µM | > 30 µM | > 30 µM |  | > 30 µM | > 30 µM | > 30 µM | > 30 µM |  | > 10 µM | > 30 µM | > 10 µM | > 30 µM
13 | O=C1[C@@H]2[C@H]3CC[C@H](C3)[C@@H]2C(=O)N1C[C@@H]1CCCC[C@H]1CN1CCN(c2nsc3ccccc23)CC1 [LURASIDONE] | > 30 µM | 41 µM |  |  | > 30 µM | > 30 µM |  | 22.5 µM | > 30 µM |  |  |  | > 30 µM
14 | Cn1cnc2c(F)c(Nc3ccc(Br)cc3F)c(C(=O)NOCCO)cc21 [BINIMETINIB] | > 30 µM | > 30 µM | > 30 µM | > 30 µM | > 30 µM | > 30 µM |  |  |  |  |  |  | 
